From patent US7883785B2, “Rhodium and iridium complexes” (Merck Patent GmbH, priority 2002, dated 2011)

Test: Solubilities of various complexes in toluene at 20° C.
Format: physicochemical
Settings: table title: Solubilities of various complexes

| SMILES | Solubility in toluene at 20° C. |
| --- | --- |
| c1ccc(-c2ccc3[c](c2)[Ir-3]24([c]5cc(-c6ccccc6)ccc5-c5cccc[n+]52)([c]2cc(-c5ccccc5)ccc2-c2cccc[n+]24)[n+]2ccccc2-3)cc1 [Compound 1, fac-Tris[2-(2-pyridinyl-κN)(5-(phenyl)phenyl)-κC]iridium(III)] | 6.3 mg/mL |
| Cc1ccccc1-c1ccc2[c](c1)[Ir-3]13([c]4cc(-c5ccccc5C)ccc4-c4cccc[n+]41)([c]1cc(-c4ccccc4C)ccc1-c1cccc[n+]13)[n+]1ccccc1-2 [Compound 2, fac-tris[2-(2-pyridinyl-κN)(5-(o-tolyl)phenyl)-κC]iridium(III)] | 25 mg/mL |
| Cc1ccc(C)c(-c2ccc3[c](c2)[Ir-3]24([c]5cc(-c6cc(C)ccc6C)ccc5-c5cccc[n+]52)([c]2cc(-c5cc(C)ccc5C)ccc2-c2cccc[n+]24)[n+]2ccccc2-3)c1 [Compound 7, fac-Tris[2-(2-pyridinyl-κN)(5-(2,5-dimethylphenyl)phenyl)-κC]-iridium(III)] | 32 mg/mL |
| CC(C)COc1ccc(-c2ccc3[c](c2)[Ir-3]24([c]5cc(-c6ccc(OCC(C)C)c(OCC(C)C)c6)ccc5-c5cccc[n+]52)([c]2cc(-c5ccc(OCC(C)C)c(OCC(C)C)c5)ccc2-c2cccc[n+]24)[n+]2ccccc2-3)cc1OCC(C)C [Compound 8, fac-Tris[2-(2-pyridinyl-κN)(5-(3,4-bis(2-methylpropoxy)phenyl)phenyl)-κC]iridium(III)] | 92 mg/mL |
